Experimental data reported in US20240158446A1, “CYCLIC COMPOUND HAVING SELECTIVE INHIBITORY ACTION ON KRAS OVER HRAS AND NRAS” (CHUGAI SEIYAKU KABUSHIKI KAISHA, priority 2021, published 2024).
Like-named read-outs stand apart in the source and are kept apart here. *1 amine or outer side, *2 acyl side, *3 side chain or, on linkers, in order; H or OH if unused. Where a SMILES comes first, the peptide text is derived from it. Bridges are numbered along the chain shown (N, C = ends). [ ]: non-standard residue; d: D form. The star is where a group is joined. X25 = O=C([C@H](Cc1ccc(C(F)(F)F)cc1)N(CCC(F)(F)F)[*:1])[*:2]; hPhe(3-Cl-4-CF3) = N[C@@H](CCc1ccc(C(F)(F)F)c(Cl)c1)C(=O)O; NMePhe(4-Me) = CN[C@@H](Cc1ccc(C)cc1)C(=O)O; NMeGly(cPent) = CN[C@H](C(=O)O)C1CCCC1; NMeD = CN[C@@H](CC(=O)O)C(=O)O; NMeL = CN[C@@H](CC(C)C)C(=O)O; Morpholide = C1CN(*)CCO1; NMeA = CN[C@@H](C)C(=O)O; NMeAib = CNC(C)(C)C(=O)O; Nle = CCCC[C@H](N)C(=O)O; Piperidide = C1CCN(*)CC1; Ac5c = NC1(C(=O)O)CCCC1; Aze = O=C(O)[C@@H]1CCN1; Sar = CNCC(=O)O

Legend:
[1] = target: GDP-bound KRAS wild-type protein (Homo sapiens, UniProt P01116); assay: Binding to KRAS by surface plasmon resonance (SPR), Single Cycle Kinetics; settings: GDP-bound KRAS wild-type protein, read-out: KRAS KD
[2] = target: GDP-bound NRAS wild-type protein (Homo sapiens, UniProt P01111); assay: Binding to NRAS by surface plasmon resonance (SPR), Single Cycle Kinetics; settings: SPR, GDP-bound NRAS wild-type protein vs GDP-bound KRAS wild-type protein
[3] = target: GDP-bound HRAS wild-type protein (Homo sapiens, UniProt P01112); assay: Binding to HRAS by surface plasmon resonance (SPR), Single Cycle Kinetics; settings: SPR, GDP-bound HRAS wild-type protein vs GDP-bound KRAS wild-type protein
[4] = SPR Single Cycle Kinetics, 1:1 binding model

Sequence of GDP-bound KRAS wild-type protein (P01116 whole entry): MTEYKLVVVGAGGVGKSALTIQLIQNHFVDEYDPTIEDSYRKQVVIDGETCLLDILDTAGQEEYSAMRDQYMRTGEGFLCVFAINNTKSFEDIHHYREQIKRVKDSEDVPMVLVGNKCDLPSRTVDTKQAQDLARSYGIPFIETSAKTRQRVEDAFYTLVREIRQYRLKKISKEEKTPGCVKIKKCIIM
Sequence of GDP-bound NRAS wild-type protein (P01111 whole entry): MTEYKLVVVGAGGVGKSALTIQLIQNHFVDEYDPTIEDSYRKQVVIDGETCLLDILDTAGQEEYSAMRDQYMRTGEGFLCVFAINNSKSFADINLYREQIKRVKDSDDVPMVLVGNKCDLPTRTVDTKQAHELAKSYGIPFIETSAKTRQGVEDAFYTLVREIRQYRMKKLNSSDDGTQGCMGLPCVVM
Sequence of GDP-bound HRAS wild-type protein (P01112 whole entry): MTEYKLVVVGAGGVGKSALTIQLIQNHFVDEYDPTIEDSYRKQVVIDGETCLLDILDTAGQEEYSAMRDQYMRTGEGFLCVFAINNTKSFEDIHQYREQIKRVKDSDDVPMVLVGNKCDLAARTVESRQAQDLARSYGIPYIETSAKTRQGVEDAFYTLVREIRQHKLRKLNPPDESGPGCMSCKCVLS

Compound | Kd [1, 4] | NRAS/KRAS (ratio of KD value with respect to NRAS to KD value with respect to KRAS) [2] | HRAS/KRAS (ratio of KD value with respect to HRAS to KD value with respect to KRAS) [3] | NRAS/KRAS (ratio of KD value for NRAS to KD value for KRAS) [2] | HRAS/KRAS (ratio of KD value for HRAS to KD value for KRAS) [3] | Kd ([1]; SPR, Single Cycle Kinetics)
CCO[C@@H]1C[C@H]2C(=O)NC3(CC(C)(C)C3)C(=O)N(C)[C@@H](C3CCCC3)C(=O)N(C)[C@H](C(=O)N3CCOCC3)CC(=O)N(C)[C@@H](CC(C)C)C(=O)N[C@@H]([C@@H](C)CC)C(=O)N(C)CC(=O)N(C)[C@H]3CCCCCN(C3=O)[C@@H](Cc3ccc(C(F)(F)F)cc3)C(=O)N(C)CC(=O)N[C@@H](CCc3cc(F)c(C(F)(F)F)c(F)c3)C(=O)N2C1 [PP0726] | 1.1 nM | B (a compound having 3 or more and less than 10 is denoted as B) | B (a compound having 3 or more and less than 10 is denoted as B) |  |  | 
CCCC[C@@H]1NC(=O)[C@H](CCc2ccc(C(F)(F)F)c(Cl)c2)NC(=O)CN(C)C(=O)[C@H](Cc2ccc(C)cc2)N(C)C(=O)[C@@H]2CCN2C(=O)[C@H](C)N(C)C(=O)[C@H]([C@@H](C)CC)NC(=O)[C@H](CC(C)C)N(C)C(=O)C[C@@H](C(=O)N2CCCCC2)N(C)C(=O)[C@H](CC(C)C)NC(=O)C(C)(C)N(C)C1=O [PP0047] ([NMeL]I[NMeA][Aze][NMePhe(4-Me)][Sar][hPhe(3-Cl-4-CF3)][Nle][NMeAib]L[NMeD]-Piperidide; lactam N-11) | 18 nM |  |  | C (A compound having a KD ratio of 0.1 or more and less than 3 is denoted as C) | C (A compound having a KD ratio of 0.1 or more and less than 3 is denoted as C) | 
CC[C@H](C)[C@@H]1NC(=O)[C@H](CC(C)C)N(C)C(=O)C[C@@H](C(=O)N(C)C)N(CCC2CCCC2)C(=O)[C@H](C2CCCC2)N(C)C(=O)C2(CCC2)NC(=O)[C@@H]2CC(F)(F)CN2C(=O)[C@H](CCc2ccc(C(F)(F)F)c(Cl)c2)NC(=O)CN(C)C(=O)[C@H](Cc2ccc(F)cc2)N2CCCCC[C@@H](C2=O)N(C)C(=O)CN(C)C1=O [PP0977] |  |  |  | B (a compound having 3 or more and less than 10 is denoted as B) | A (a compound having 10 or more and less than 20 is denoted as A) | 7.7 nM
CC[C@H](C)[C@@H]1NC(=O)[C@H](CC(F)(F)F)N(C)C(=O)C[C@@H](C(=O)N2CCOCC2)N(C)C(=O)[C@H](C2CCCC2)N(C)C(=O)C2(CCCC2)NC(=O)[C@@H]2CCCN2C(=O)[C@H](CCc2cc(F)c(C(F)(F)F)c(F)c2)NC(=O)CN(C)C(=O)[C@H](Cc2ccc(C(F)(F)F)cc2)N2CCCCC[C@@H](C2=O)N(C)C(=O)CN(C)C1=O [PP0520] | 0.99 nM | B (a compound having 3 or more and less than 10 is denoted as B) | B (a compound having 3 or more and less than 10 is denoted as B) |  |  | 
CC[C@H](C)[C@@H]1NC(=O)[C@H](CC(C)C)N(C)C(=O)C[C@@H](C(=O)N2CCOCC2)N(C)C(=O)[C@H](C2CCCC2)N(C)C(=O)C2(CCCC2)NC(=O)[C@@H]2CCCN2C(=O)[C@H](CCc2ccc(C(F)(F)F)c(Cl)c2)NC(=O)CN(C)C(=O)[C@H](Cc2ccc(C(F)(F)F)cc2)N(CCC(F)(F)F)C(=O)CN(C)C(=O)CN(C)C1=O [PP0131] ([NMeL]I[Sar][Sar][X25][Sar][hPhe(3-Cl-4-CF3)]P[Ac5c][NMeGly(cPent)][NMeD]-Morpholide; lactam N-11) | 0.14 nM |  |  | B (a compound having 3 or more and less than 10 is denoted as B) | C (A compound having a KD ratio of 0.1 or more and less than 3 is denoted as C) | 
